{
  "source": "patent US8193225B2",
  "about": "“Isoxazole amides, derivatives and methods of chemical induction of neurogenesis” (priority 2006, dated 2012)",
  "test_system": "NMDA receptor 1-(NR1) luciferase",
  "experiment": "NMDA receptor 1 (NR1)-luciferase reporter in BTSCs",
  "assay_type": "cell-based, human",
  "details": "after 24 hours, compared to vehicle",
  "description": "CD133+ glioblastoma brain tumor stem cells (BTSCs) from an explanted human tumor specimen were treated with 20 μM Isx-9 (FIG. 9C) or vol/vol DMSO (vehicle) control (FIG. 9B).",
  "data": [
    {"smiles": "O=C(NC1CC1)c1cc(-c2cccs2)on1", "note": "[Isx-9, N-cyclopropyl-5-(thiophen-2-yl)isoxazole-3-carboxamide]", "values": [
      {"measurement": "activation of NR1-luciferase in BTSCs", "result": "Dose-dependent activation"}
    ]}
  ]
}
